In US10981884B2, “Process for the preparation of epoprostenol sodium of enhanced stability” (CHINOIN GYÓGYSZER ÉS VEGYÉSZETI TERMÉKEK GYÁRA ZRT., priority 2016, dated 2021):
Values joined by “and” are separate entries in the source; they are usually repeats but may differ in a detail not shown here. Identical values can stand only once.

What was measured:
[1] = Accelerated stability study of lyophilisates at room temperature in closed glass vessels, active ingredient content followed by HPLC; type: physicochemical; details: closed glass vessel
Description: We investigated the effect of the sodium hydroxide amount used for the salt formation on the stability of the acid-sensitive epoprostenol Na. For this purpose the excess alkali which may be present in the epoprostenol Na salt was removed with strongly acidic cation exchange DOWEX resin, to the aqueous solution of the salt not containing excess alkali, different amounts of sodium hydroxide were added and the obtained solutions were lyophilized. From the 1% aqueous lyophilisate solutions we measured the pH and started accelerated stability studies at room temperature, in closed glass vessels. The change of the active ingredient content of the stability samples was followed by HPLC after 0, 24, 48 and 144 hours. From the measured active ingredient contents decomposition rates of epoprostenol Na have been calculated (Table 1.).

[2] = Storage stability in refrigerator (5±3° C.), 6-oxo-PGF1alpha impurity content by HPLC; type: physicochemical; details: for 6-oxo-PGF1alpha content (HPLC): refrigerator (5 ± 3° C.), 4 mass % NaOH excess
Description: Based on these unexpected experimental results we modified our new technology, we dissolved the funnel-wet, crystalline epoprostenol sodium salt in water, to the aqueous solution we added 2M NaOH solution in such an amount that the product, after lyophilisation contains 4 mass % excess of sodium hydroxide. The epoprostenol Na prepared by the new method may be stored in refrigerator (5±3° C.) for at least 6 months (Table 3.).

[3] = Storage stability in deep-freezer (−20±5° C.), 6-oxo-PGF1alpha impurity content by HPLC; type: physicochemical; details: 4-5-6% NaOH excesses compared
[4] = pH of 1% aqueous lyophilisate solution; type: physicochemical
Description: For this purpose the excess alkali which may be present in the epoprostenol Na salt was removed with strongly acidic cation exchange DOWEX resin, to the aqueous solution of the salt not containing excess alkali, different amounts of sodium hydroxide were added and the obtained solutions were lyophilized. From the 1% aqueous lyophilisate solutions we measured the pH and started accelerated stability studies at room temperature, in closed glass vessels.

[5] = −30° C., white powder; cited from earlier work
[6] = Storage stability in deep-freezer (−20±5° C.), 6-oxo-PGF1alpha impurity content by HPLC; type: physicochemical; details: for 6-oxo-PGF1alpha content (HPLC): deep-freezer (−20 ± 5° C.), 4 mass % NaOH excess
Description: Based on these unexpected experimental results we modified our new technology, we dissolved the funnel-wet, crystalline epoprostenol sodium salt in water, to the aqueous solution we added 2M NaOH solution in such an amount that the product, after lyophilisation contains 4 mass % excess of sodium hydroxide. The stability of the epoprostenol Na prepared by this new method is excellent, it can be stored in deep-freezer (−20±5° C.) for at least 3 years.

[7] = aqueous solution at physiological pH; cited from earlier work

## CCCCC[C@H](O)/C=C/[C@@H]1[C@H]2C/C(=C/CCCC(=O)[O-])O[C@H]2C[C@H]1O.[Na+] [Epoprostenol Na, (5Z,9α,11α,13E,15S)-6,9-Epoxy-11,15-dihydroxyprosta-5,13-dien-1-acid sodium salt]
[1]; 0.25 mass % NaOH added, sodium salt
  PGI2Na decomposition: 34.9 %/month and 34.6 %/month
[1]; 2.5 mass % NaOH added, sodium salt
  PGI2Na decomposition: 10.9 %/month and 10.6 %/month
[1]; 3.0 mass % NaOH added
  PGI2Na decomposition: 8.8 %/month
[1]; 4.0 mass % NaOH added
  PGI2Na decomposition: 4.5 %/month
[1]; 5.0 mass % NaOH added
  PGI2Na decomposition: 1.7 %/month
[1]; 5.5 mass % NaOH added
  PGI2Na decomposition: 1.3 %/month
[1]; 6.0 mass % NaOH added
  PGI2Na decomposition: 1.7 %/month
[1]; 7.5 mass % NaOH added
  PGI2Na decomposition: 3.1 %/month
[1]; 12.5 mass % NaOH added
  PGI2Na decomposition: 3.5 %/month
[2]; month 0
  6-oxo-PGF1alpha content (HPLC): 0.2 mass %
[2]; month 1
  6-oxo-PGF1alpha content (HPLC): 0.3 mass %
[2]; month 3
  6-oxo-PGF1alpha content (HPLC): 0.4 mass %
[2]; month 6
  6-oxo-PGF1alpha content (HPLC): 0.2 mass %
[2]; refrigerator (5±3° C.), lyophilisate with 4 mass % NaOH excess
  storage time (may be stored): at least 6 months
[3]
  stability in the storage praxis: equally good
[4]; lyophilisate with 0.25 mass % NaOH added, sodium salt
  pH (1% aqueous solution): 9.98 and 10.14
[4]; lyophilisate with 2.5 mass % NaOH added
  pH (1% aqueous solution): 11.64
[4]; lyophilisate with 3.0 mass % NaOH added
  pH (1% aqueous solution): 11.70
[4]; lyophilisate with 4.0 mass % NaOH added
  pH (1% aqueous solution): 11.78
[4]; lyophilisate with 5.0 mass % NaOH added
  pH (1% aqueous solution): 11.86
[4]; lyophilisate with 5.5 mass % NaOH added
  pH (1% aqueous solution): 11.90
[4]; lyophilisate with 6.0 mass % NaOH added
  pH (1% aqueous solution): 11.92
[4]; lyophilisate with 7.5 mass % NaOH added
  pH (1% aqueous solution): 12.00
[4]; lyophilisate with 12.5 mass % NaOH added
  pH (1% aqueous solution): 12.15
[5]
  time lyophilisate remained stable: at least two
[6]; month 0
  6-oxo-PGF1alpha content (HPLC): 0.2 mass %
[6]; month 1
  6-oxo-PGF1alpha content (HPLC): 0.2 mass %
[6]; month 3
  6-oxo-PGF1alpha content (HPLC): 0.2 mass %
[6]; month 6
  6-oxo-PGF1alpha content (HPLC): 0.2 mass %
[6]; month 9
  6-oxo-PGF1alpha content (HPLC): 0.2 mass %
[6]; month 12
  6-oxo-PGF1alpha content (HPLC): 0.2 mass %
[6]; month 18
  6-oxo-PGF1alpha content (HPLC): 0.2 mass %
[6]; month 24
  6-oxo-PGF1alpha content (HPLC): 0.2 mass %
[6]; month 36
  6-oxo-PGF1alpha content (HPLC): 0.2 mass %
[6]; deep-freezer (−20±5° C.), lyophilisate with 4 mass % NaOH excess
  storage time (can be stored): at least 3 years

## CCCCC[C@H](O)/C=C/[C@@H]1[C@H]2C/C(=C/CCCC(=O)O)O[C@H]2C[C@H]1O [prostacyclin]
[7]
  half-life: 3 to 4 min
